Measurements published in PMC9182188, “Isoquinoline Alkaloid Contents in Macleaya cordata Extracts and Their Acetylcholinesterase and Butyrylcholinesterase Inhibition” (Molecules, 2022).
In brackets after ≈: the same amount, converted by molar mass. Like-named read-outs stand apart in the source and are kept apart here.

How the values were obtained:
[1] = molecular target: T1, acetylcholinesterase (Homo sapiens, UniProt P22303); assay type: biochemical; details: alkaloid standards; HPLC-DAD; 0.2 U/mL enzyme; 15 min at 37 °C; pH 7.8
T1 construct: purchased Sigma-Aldrich
T1 sequence (P22303 32-614, species assumed): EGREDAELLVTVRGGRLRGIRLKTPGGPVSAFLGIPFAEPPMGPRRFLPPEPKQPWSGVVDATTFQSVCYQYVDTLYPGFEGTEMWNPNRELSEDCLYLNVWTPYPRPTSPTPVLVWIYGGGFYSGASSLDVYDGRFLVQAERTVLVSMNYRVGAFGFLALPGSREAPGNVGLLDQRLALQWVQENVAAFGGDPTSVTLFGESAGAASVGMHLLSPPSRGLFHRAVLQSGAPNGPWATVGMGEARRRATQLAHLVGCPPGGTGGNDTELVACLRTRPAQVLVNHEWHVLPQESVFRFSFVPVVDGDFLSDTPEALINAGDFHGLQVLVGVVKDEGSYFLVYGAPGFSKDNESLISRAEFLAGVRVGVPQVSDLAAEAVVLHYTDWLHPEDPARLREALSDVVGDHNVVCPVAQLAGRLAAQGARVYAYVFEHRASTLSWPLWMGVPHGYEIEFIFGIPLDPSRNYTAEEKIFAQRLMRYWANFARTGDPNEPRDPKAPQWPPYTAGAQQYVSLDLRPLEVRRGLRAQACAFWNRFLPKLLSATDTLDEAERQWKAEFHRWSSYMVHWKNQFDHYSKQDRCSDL
Method: For determination of acetylcholinesterase inhibitory activity of alkaloid standards and plant extracts by HPLC analysis was performed on the same apparatus as determination of alkaloid contents on Polar RP column with mobile phase A containing methanol and 0.0025 M diethylamine, mobile phase B containing acetate buffer at pH 3.8 and 0.0025 M diethylamine, mobile phase in gradient elution: 0–15 min, 10% A; 15–30 min, 10–70% A; 30–60 min, 70% A. Flow rate was 1 mL/min.
(§1) Samples for determination of acetylcholinesterase inhibitory activity were prepared by addition of 50 µL of acetylthiocholine iodide, 50 µL of 5′-dithiobis-(2-nitrobenzoic acid), 50 µL of acetylcholinesterase at concentration 2 U/mL and phosphate buffer at pH 7.8 to obtaining 500 µL of final solution. […] All components were mixed and samples were incubated for 15 min at 37 °C. Samples were filtrated by syringe filter (CHROMAFIL Xtra, PVDF-29/25 0.20 µm) and injected into HPLC system. […] All experiments were performed in triplicates.

[2] = molecular target: T2, butyrylcholinesterase (Homo sapiens, UniProt P06276); experiment: Butyrylcholinesterase inhibitory activity by HPLC-DAD (Ellman reaction product TNBA); assay type: biochemical; details: alkaloid standards, 0.2 U/mL enzyme, 15 min at 37 °C
T2 construct: purchased Sigma-Aldrich
T2 sequence (P06276 29-602): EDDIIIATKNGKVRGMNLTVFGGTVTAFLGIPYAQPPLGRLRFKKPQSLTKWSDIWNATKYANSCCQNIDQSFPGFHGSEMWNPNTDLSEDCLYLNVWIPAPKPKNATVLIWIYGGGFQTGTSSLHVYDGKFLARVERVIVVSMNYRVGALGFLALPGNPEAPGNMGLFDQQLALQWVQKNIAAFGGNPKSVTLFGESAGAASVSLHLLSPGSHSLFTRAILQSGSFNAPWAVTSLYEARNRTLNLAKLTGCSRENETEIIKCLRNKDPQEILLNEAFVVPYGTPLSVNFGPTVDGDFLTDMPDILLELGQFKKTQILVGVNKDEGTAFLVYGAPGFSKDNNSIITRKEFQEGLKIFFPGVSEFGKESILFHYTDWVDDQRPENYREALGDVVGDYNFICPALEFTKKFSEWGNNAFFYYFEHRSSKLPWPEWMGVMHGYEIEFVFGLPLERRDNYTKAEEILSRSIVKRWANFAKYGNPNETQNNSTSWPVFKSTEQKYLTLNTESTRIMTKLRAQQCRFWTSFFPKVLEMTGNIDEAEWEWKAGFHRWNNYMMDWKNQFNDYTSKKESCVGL
Method: For determination of butyrylcholinesterase inhibitory activity of alkaloid standards and plant extracts by HPLC analysis was performed on the same apparatus, column and mobile phase as determination of acetylcholinesterase inhibitory activity.
as §1, with “butyrylcholinesterase” for “acetylcholinesterase”, “butyrylthiocholine” for “acetylthiocholine”

[3] = molecular target: T1, acetylcholinesterase; experiment: Kinetic analysis of acetylcholinesterase inhibition (Lineweaver-Burk and secondary plots); assay type: biochemical; details: for type of acetylcholinesterase inhibition: Lineweaver-Burk and Dixon plots; for Ki: estimated from slope of Lineweaver-Burk plots vs inhibitor concentration, read-out: Ki (inhibition constant), acetylcholinesterase
From the text: The type of inhibition and inhibition constants (Ki value) of the compounds were investigated using Lineweaver–Burk and Dixon plots (Figure 5 and Figure 6).
The Ki values were estimated by plotting the slope of the individual Lineweaver–Burk plots versus the inhibitor concentrations (Figure 5B and Figure 6B).
For determination of 5-thio-2-nitro-benzoic acid, the product of reaction between the thiocholine with Ellman’s reagent, HPLC-DAD method was applied. The chromatographic analysis was performed in the same conditions as was used for determination of cholinesterase activity described above. Quantification of 5-thio-2-nitro-benzoic acid was performed by a calibration curve method. 5-thio-2-nitrobenzoic acid was prepared from 5′-dithiobis-(2-nitrobenzoic acid) as described by Landino et al.. 0.5 g of 5′-dithiobis-(2-nitrobenzoic acid) in 25 mL 0.5 M Tris–HCl, pH 8.8, was treated with 2.5 mL β-mercaptoethanol. The pH of the solution was adjusted to 1.5 with 6M HCl. 5-thio-2-nitro-benzoic acid was formed after 6–8 h at 4 °C. The crystals of -thio-2-nitro-benzoic acid were filtered and washed with cold 0.1 M HCl. Types of inhibition were determined by the graphical analysis of Lineweaver–Burk plots and its secondary plots.

[4] = molecular target: T1, acetylcholinesterase; details: modified Ellman's method; read-out: IC50 against acetylcholinesterase; cited from earlier work
[5] = molecular target: T2, butyrylcholinesterase; details: modified Ellman's method; read-out: IC50 against butyrylcholinesterase; cited from earlier work
[6] = system: swine or human cell lines; details: cited from earlier work
[7] = system: pig livers; details: 32P-post-labeling assay; cited from earlier work
[8] = pH 7.8, read-out: IC50 values Butyrylcholinesterae
[9] = pH 7.8, read-out: IC50 values Butyrylcholinesterae (μg/mL) (converted)

| Compound | IC50 [1] [nM] | IC50 [2, 8] [µM] | IC50 [2, 9] [µM] | type of acetylcholinesterase inhibition [3] | Ki [3] [nM] | IC50 [4] [nM] | IC50 [5] [nM] | toxicity [6] | DNA adducts [7] | IC50 values Acetylcholinesterase [1] [µg/mL] | IC50 ([2]; IC50 values Butyrylcholinesterae (μM), pH 7.8) [µM] | IC50 ([2]; IC50 values Butyrylcholinesterae (μg/mL), pH 7.8) [µM] |
| --- | --- | --- | --- | --- | --- | --- | --- | --- | --- | --- | --- | --- |
| COc1ccc2c(c[n+](C)c3c4cc5c(cc4ccc23)OCO5)c1OC [Chelerythrine, chelerythrine] | 720 ± 80 | 2.15 ± 0.19 | 2.15 | competitive | 180 | 1030 | 3550 | low toxicity | no DNA adducts | – | – | – |
| CN1CCc2cc3c(cc2C(=O)Cc2ccc4c(c2C1)OCO4)OCO3 [Protopine, protopine] | – | – | – | – | – | – | – | – | – | 24.67 (≈ 69.8 µM) | 52.8 ± 4.81 | 52.8 |
| C[n+]1cc2c3c(ccc2c2ccc4cc5c(cc4c21)OCO5)OCO3 [Sanguinarine, sanguinarine] | 5570 ± 470 | 9.82 ± 0.91 | 9.81 | noncompetitive | 200 | – | – | low toxicity | no DNA adducts | – | – | – |
